Where a name gives a salt, the structure may show the parent alone.
Biological target: T1, TAFIa (Homo sapiens, UniProt Q96IY4)
T1 construct: purchased Enzyme Research Laboratories
T1 sequence (Q96IY4 115-423): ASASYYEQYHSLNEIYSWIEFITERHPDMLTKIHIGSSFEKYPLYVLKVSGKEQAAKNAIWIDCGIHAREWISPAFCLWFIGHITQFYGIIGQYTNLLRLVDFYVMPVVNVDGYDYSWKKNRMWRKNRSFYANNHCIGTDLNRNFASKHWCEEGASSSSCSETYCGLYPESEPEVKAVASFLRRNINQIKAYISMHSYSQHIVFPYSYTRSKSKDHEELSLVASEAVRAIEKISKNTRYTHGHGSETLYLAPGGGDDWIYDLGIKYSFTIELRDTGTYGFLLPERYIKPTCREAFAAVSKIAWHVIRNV
Assay: TAFIa inhibition test (Hip-Arg substrate, absorbance at 405 nm)
Format: biochemical
Settings: 40 minutes at room temperature, read-out: IC50 (TAFIa inhibitory activity)
Description: Test 1 [TAFIa Inhibition Test]
Compounds of the present invention were measured for their TAFIa inhibitory activity as follows based on the method described in Thromb. Haemost. 371 (1988).
(a) Preparation of TAFIa Solution
To 450 μl of TAFI (the product of Enzyme Research Laboratories whose concentration was adjusted to 18 μg/ml with buffer A: 100 mM Tris-HCl buffer, pH 7.4), 45 μl of a thrombomodulin solution (a rabbit lung derived thrombomodulin produced by American Diagnostia whose concentration was adjusted to 1 μg/ml with buffer B: 50 mM Tris-HCl, pH 7.5, containing 0.15 M NaCl) and 45 μl of a thrombin solution (a freeze-dried human plasma derived thrombin produced by Sigma and dissolved in water to have a concentration of 30 μ/ml) were added and the mixture was left to stand for 25 minutes at room temperature.
(b) Method of Measuring TAFIa Inhibitory Activity
To wells on a 96-well microplate, the above-prepared TAFIa solution, a test compound, and a substrate solution (Hip-Arg produced by Sigma and dissolved in buffer C of 100 mM Tris-HCl buffer, pH 8.3, to have a concentration of 3.6 mM) were added in respective amounts of 20 μl/well, 10 μl/well, and 70 μl/well. The individual components were mixed well and the reaction was carried out for 40 minutes at room temperature.
Subsequently, a color former (1% cyanuric chloride in 1,4-dioxane) was added in an amount of 50 μl to each well and the plate was left to stand for 3 minutes at room temperature; then, the absorbance at 405 nm was measured with a microplate reader (Spectramax M2 of Molecular Devices). With the absorbance in the absence of a test compound minus the absorbance in the absence of an enzyme being taken as 100%, the concentration of the compound that inhibited 50% of the reaction (IC50) was calculated from the absorbance in the presence of the test compound minus the absorbance in the absence of the enzyme.
For several compounds of the present invention, the above test was conducted and on the basis of the results of measurements, TAFIa inhibitory activity was calculated to give the results shown in Table 2.

SMILES | IC50 [nM]
NCCCC(Cc1ncn2c1CCc1ccccc1-2)C(=O)O (stereo not drawn) [Example 1, 5-amino-2-(4,5-dihydroimidazo[1,5-a]quinolin-3-ylmethyl)pentanoic acid] | 95
NCCC[C@@H](Cc1ncn2c1CCc1ccccc1-2)C(=O)O [Example 2, (2S)-5-amino-2-(4,5-dihydroimidazo[1,5-a]quinolin-3-ylmethyl)pentanoic acid] | 63
NCCC[C@H](Cc1ncn2c1CCc1ccccc1-2)C(=O)O [Example 3, (2R)-5-amino-2-(4,5-dihydroimidazo[1,5-a]quinolin-3-ylmethyl)pentanoic acid] | 860
NCCCC(Cc1ncn2c1CCCc1ccccc1-2)C(=O)O (stereo not drawn) [Example 4, 5-amino-2-(5,6-dihydro-4H-imidazo[1,5-a] [1]benzazepin-3-ylmethyl)pentanoic acid] | 3300
NCCCC(Cc1ncn2c1COc1ccccc1-2)C(=O)O (stereo not drawn) [Example 5, 5-amino-2-(4H-imidazo[5,1-c][1,4]benzoxazin-3-ylmethyl)pentanoic acid] | 1100
NCCCC(Cc1ncn2c1CCc1ccncc1-2)C(=O)O (stereo not drawn) [Example 6, 5-amino-2-(4,5-dihydroimidazo[1,5-a] [1,7]naphthyridin-3-ylmethyl)pentanoic acid] | 1600
Cc1cccc2c1-n1cnc(CC(CCCN)C(=O)O)c1CC2 (stereo not drawn) [Example 7, 5-amino-2-[(9-methyl-4,5-dihydroimidazo[1,5-a]quinolin-3-yl)methyl]pentanoic acid dihydrochloride] | 6400
CCc1cccc2c1CCc1c(CC(CCCN)C(=O)O)ncn1-2 (stereo not drawn) [Example 8, 5-amino-2-[(6-ethyl-4,5-dihydroimidazo[1,5-a]quinolin-3-yl)methyl]pentanoic acid] | 270
NCCCC(Cc1ncn2c1CCc1c(Cl)cccc1-2)C(=O)O (stereo not drawn) [Example 9, 5-amino-2-[(6-chloro-4,5-dihydroimidazo[1,5-a]quinolin-3-yl)methyl]pentanoic acid] | 190
Cc1cccc2c1CCc1c(CC(CCCN)C(=O)O)ncn1-2 (stereo not drawn) [Example 10, 5-amino-2-[(6-methyl-4,5-dihydroimidazo[1,5-a]quinolin-3-yl)methyl]pentanoic acid] | 150
Cc1ccc2c(c1)CCc1c(CC(CCCN)C(=O)O)ncn1-2 (stereo not drawn) [Example 11, 5-amino-2-[(7-methyl-4,5-dihydroimidazo[1,5-a]quinolin-3-yl)methyl]pentanoic acid dihydrochloride] | 61
Cc1ccc2c(c1)-n1cnc(CC(CCCN)C(=O)O)c1CC2 (stereo not drawn) [Example 12, 5-amino-2-[(8-methyl-4,5-dihydroimidazo[1,5-a]quinolin-3-yl)methyl]pentanoic acid] | 1800
NCCCCC(C(=O)O)c1ncn2c1CCc1ccccc1-2 (stereo not drawn) [Example 13, 6-amino-2-(4,5-dihydroimidazo[1,5-a]quinolin-3-yl)hexanoic acid] | 3300
CCOc1ccc2c(c1)CCc1c(CC(CCCN)C(=O)O)ncn1-2 (stereo not drawn) [Example 14, 5-amino-2-[(7-ethoxy-4,5-dihydroimidazo[1,5-a]quinolin-3-yl)methyl]pentanoic acid] | 110
NCCCC(Cc1ncn2c1CCc1cc(-c3ccccc3)ccc1-2)C(=O)O (stereo not drawn) [Example 15, 5-amino-2-[(7-phenyl-4,5-dihydroimidazo[1,5-a]quinolin-3-yl)methyl]pentanoic acid dihydrochloride] | 140
NCCCC(Cc1ncn2c1CCc1cc(OC3CCCCC3)ccc1-2)C(=O)O (stereo not drawn) [Example 16, 5-amino-2-{[7-(cyclohexyloxy)-4,5-dihydroimidazo[1,5-a]quinolin-3-yl)methyl]pentanoic acid] | 180
CCCc1ccc2c(c1)CCc1c(CC(CCCN)C(=O)O)ncn1-2 (stereo not drawn) [Example 17, 5-amino-2-[(7-propyl-4,5-dihydroimidazo[1,5-a]quinolin-3-yl)methyl]pentanoic acid dihydrochloride] | 67
NCCCC(Cc1ncn2c1CNc1ccccc1-2)C(=O)O (stereo not drawn) [Example 18, 5-amino-2-(4,5-dihydroimidazo[1,5-a]quinoxalin-3-ylmethyl)pentanoic acid] | 630

The next lines start with the values.

IC50 [nM] | SMILES
580 | NCCCC(Cc1ncn2c1CCc1ncccc1-2)C(=O)O (stereo not drawn) [Example 19, 5-amino-2-(4,5-dihydroimidazo[1,5-a] [1,5]naphthyridin-3-ylmethyl)pentanoic acid]
2300 | CNCCCC(Cc1ncn2c1CCc1ccccc1-2)C(=O)O (stereo not drawn) [Example 20, 2-(4,5-dihydroimidazo[1,5-a]quinolin-3-ylmethyl)-5-(methylamino)pentanoic acid]
1400 | NCCCC(Cc1ncn2c1Cc1ccccc1C2)C(=O)O (stereo not drawn) [Example 21, 5-amino-2-(5,10-dihydroimidazo[1,5-b]isoquinolin-1-ylmethyl)pentanoic acid]
5100 | Nc1cc(C(Cc2ncn3c2CCc2ccccc2-3)C(=O)O)ccn1 (stereo not drawn) [Example 22, 2-(2-aminopyridin-4-yl)-3-(4,5-dihydroimidazo[1,5-a]quinolin-3-yl)propanoic acid dihydrochloride]
4400 | NCCCC(Cc1ncn2c1CCc1ccccc1-2)c1nnn[nH]1 (stereo not drawn) [Example 23, 5-(4,5-dihydroimidazo[1,5-a]quinolin-3-yl)-4-(1H-tetrazol-5-yl)pentan-1-amine]
43 | NCCC[C@@H](Cc1ncn2c1CCc1cc(CCC3CCCCC3)ccc1-2)C(=O)O [Example 24, (25)-5-amino-2-{[7-(2-cyclohexylethyl)-4,5-dihydroimidazo[1,5-a]quinolin-3-yl]methyl}pentanoic acid dihydrochloride]
28 | NCCC[C@@H](Cc1ncn2c1CCc1cc(C3CCCCC3)ccc1-2)C(=O)O [Example 25, (2S)-5-amino-2-[(7-cyclohexyl-4,5-dihydroimidazo[1,5-a]quinolin-3-yl)methyl]pentanoic acid dihydrochloride]
72 | NCCC[C@@H](Cc1ncn2c1CCc1cc(F)ccc1-2)C(=O)O [Example 26, (2S)-5-amino-2-[(7-fluoro-4,5-dihydroimidazo[1,5-a]quinolin-3-yl]methyl}pentanoic acid dihydrochloride]
410 | NCCCC(Cc1ncn2c1CCc1cc(C(F)(F)F)ccc1-2)C(=O)O (stereo not drawn) [Example 27, 5-amino-2-{[7-(trifluoromethyl)-4,5-dihydroimidazo[1,5-a]quinolin-3-yl]methyl}pentanoic acid dihydrochloride]
33 | CC(C)c1ccc2c(c1)CCc1c(C[C@H](CCCN)C(=O)O)ncn1-2 [Example 28, (2S)-5-amino-2-[(7-isopropyl-4,5-dihydroimidazo[1,5-a]quinolin-3-yl)methyl]pentanoic acid dihydrochloride]
25 | Cc1ccc2c(c1)CCc1c(C[C@H](CCCN)C(=O)O)ncn1-2 [Example 29, (2S)-5-amino-2-[(7-methyl-4,5-dihydroimidazo[1,5-a]quinolin-3-yl)methyl]pentanoic acid dihydrochloride]
28 | CCCc1ccc2c(c1)CCc1c(C[C@H](CCCN)C(=O)O)ncn1-2 [Example 30, (S)-5-amino-2-((7-propyl-4,5-dihydroimidazo[1,5-a]quinolin-3-yl)methyl)pentanoic acid dihydrochloride]
